The structures appear in SMILES notation.

The results in this text go back to US11896591B2, “Compositions and methods for preparing and using mitochondrial uncouplers” (UNIVERSITY OF VIRGINIA PATENT FOUNDATION, priority 2017, dated 2024).

The test concerns whole cells. Briefly: Oxygen consumption rate (OCR) in whole cells, Seahorse XF-24 Flux Analyzer. The settings on record: binned EC50 values; increase in oxygen consumption rate in whole cells. The test is classed as cell-based. The procedure:
Biological activities of the compounds synthesized is determined by determining increase in oxygen consumption rate (OCR).
OCR is measured using a Seahorse XF-24 Flux Analyzer (Seahorse Biosciences, North Billerica, MA). NMuLi, C2C12, and L6 cells are seeded in a Seahorse 24-well tissue culture plate at a density of 3.5×10^4 cells/well, isolated cardiomyocytes at a density of 4×10^4 cells/well, and human primary fibroblasts at a density of 1.1×10^4 cells/well. The cells are then allowed to adhere for 24 h. […] Compounds are injected during the assay and OCR is measured using 2 min measurement periods.
2-3 wells are used per condition and averaged over three plates (n=6-9). Statistical significance is determined by two-way ANOVA with Bonferroni's posttest.
Consider `Fc1ccccc1Nc1nc2nonc2nc1Nc1cc(C(F)(F)F)cc(C(F)(F)F)c1` [Compound 4aa, N^5-(3,5-bis(trifluoromethyl)phenyl)-N^6-(2-fluorophenyl)-[1,2,5]oxadiazolo[3,4-b]pyrazine-5,6-diamine], for which the EC50 was < 5 µM.
As for `Cc1ccc(Nc2nc3nonc3nc2Nc2ccccc2F)cc1` [Compound 4i, N^5-(2-fluorophenyl)-N^6-(p-tolyl)-[1,2,5]oxadiazolo[3,4-b]pyrazine-5,6-diamine], the figure is 5 to 20 µM; as for `Fc1ccc(C(F)(F)F)cc1Nc1nc2nc(C(F)(F)F)[nH]c2nc1Nc1cc(C(F)(F)F)ccc1F` [Compound 12b, N^5,N^6-bis(2-fluoro-5-(trifluoromethyl)phenyl)-2-(trifluoromethyl)-1H-imidazo[4,5-b]pyrazine-5,6-diamine], 5 to 20 µM.
The figure for `Fc1cc(F)cc(Nc2nc3nc(C(F)(F)F)[nH]c3nc2Nc2cc(F)cc(F)c2)c1` [Compound 12i, N^5,N^6-bis(3,5-difluorophenyl)-2-(trifluoromethyl)-1H-imidazo[4,5-b]pyrazine-5,6-diamine] is 5 to 20 µM; for `CCOc1cccc(Nc2nc3nonc3nc2Nc2cccc(OCC)c2)c1` [Compound 3h, N^5,N^6-bis(3-ethoxyphenyl)-[1,2,5]oxadiazolo[3,4-b]pyrazine-5,6-diamine] it is 5 to 20 µM; for `Fc1ccccc1Nc1nc2nonc2nc1Nc1cccc(C(F)(F)F)c1` [Compound 4v, N^5-(2-fluorophenyl)-N^6-(3-(trifluoromethyl)phenyl)-[1,2,5]oxadiazolo[3,4-b]pyrazine-5,6-diamine] it is < 5 µM.
`FC(F)(F)Oc1ccc(Nc2nc3nc(C(F)(F)F)[nH]c3nc2Nc2ccc(OC(F)(F)F)cc2)cc1` [Compound 12m, N^5,N^6-bis(4-(trifluoromethoxy)phenyl)-2-(trifluoromethyl)-1H-imidazo[4,5-b]pyrazine-5,6-diamine] showed an EC50 of 5 to 20 µM.
The figure for `Fc1ccccc1Nc1nc2nonc2nc1NC1CCCCC1` [Compound 7f, N^5-cyclohexyl-N^6-(2-fluorophenyl)-[1,2,5]oxadiazolo[3,4-b]pyrazine-5,6-diamine] is 5 to 20 µM; for `Cn1c(C(F)(F)F)nc2nc(Nc3ccccc3F)c(NC3CCCCC3)nc21` [Compound 13v, 1-Methyl-N^5-(2-fluorophenyl)-N^6-cyclohexyl-2-(trifluoromethyl)-imidazo[4,5-b]pyrazine-5,6-diamine] it is > 20 µM; for `Fc1cc(Nc2nc3nonc3nc2Nc2ccc(OC(F)(F)F)c(F)c2)ccc1OC(F)(F)F` [Compound 3bb, N^5,N^6-bis(3-fluoro-4-(trifluoromethoxy)phenyl)-[1,2,5]oxadiazolo[3,4-b]pyrazine-5,6-diamine] it is < 5 µM.
The figure for `Fc1ccccc1Nc1nc2nonc2nc1Nc1cccc(F)c1F` [Compound 4e, N^5-(2,3-difluorophenyl)-N^6-(2-fluorophenyl)-[1,2,5]oxadiazolo[3,4-b]pyrazine-5,6-diamine] is < 5 µM; for `FC(F)(F)c1ccc(Nc2nc3nonc3nc2Nc2ccc(C(F)(F)F)cc2)cc1` [Compound 3s, N^5,N^6-bis(4-(trifluoromethyl)phenyl)-[1,2,5]oxadiazolo[3,4-b]pyrazine-5,6-diamine] it is < 5 µM.
The figure for `COC(=O)n1c(C(F)(F)F)nc2nc(Nc3ccccc3F)c(Nc3ccccc3F)nc21` [Compound 14a, Methyl 5,6-bis((2-fluorophenyl)amino)-2-(trifluoromethyl)-imidazo[4,5-b]pyrazine-1-carboxylate] is 5 to 20 µM.
Turning to `CCOc1cccc(Nc2nc3nonc3nc2Nc2ccccc2F)c1` [Compound 4n, N^5-(3-ethoxyphenyl)-N^6-(2-fluorophenyl)-[1,2,5]oxadiazolo[3,4-b]pyrazine-5,6-diamine], the EC50 was < 5 µM.
The figure for `Cn1c(C(F)(F)F)nc2nc(Nc3ccccc3C(F)(F)F)c(Nc3ccccc3C(F)(F)F)nc21` [Compound 13c, N^5,N^6-bis(2-(trifluoromethyl)phenyl)-1-methyl-2-(trifluoromethyl)-imidazo[4,5-b]pyrazine-5,6-diamine] is 5 to 20 µM.
`Fc1ccccc1Nc1nc2nonc2nc1Nc1ccccc1C(F)(F)F` [Compound 4u, N^5-(2-fluorophenyl)-N^6-(2-(trifluoromethyl)phenyl)-[1,2,5]oxadiazolo[3,4-b]pyrazine-5,6-diamine]: the concentration giving a half-maximal response (EC50) is < 5 µM.
As for `COc1ccc(Nc2nc3[nH]c(C(F)(F)F)nc3nc2Nc2ccccc2F)cc1` [Compound 12r, N^5-(2-fluorophenyl)-N^6-(4-methoxyphenyl)-2-(trifluoromethyl)-1H-imidazo[4,5-b]pyrazine-5,6-diamine], the figure is > 20 µM; as for `CCOc1ccc(Nc2nc3nonc3nc2Nc2ccccc2F)cc1` [Compound 4o, N^5-(4-ethoxyphenyl)-N^6-(2-fluorophenyl)-[1,2,5]oxadiazolo[3,4-b]pyrazine-5,6-diamine], < 5 µM.
On to `Fc1ccccc1Nc1nc2nonc2nc1Nc1cccc(OC(F)(F)F)c1` [Compound 4r, N^5-(2-fluorophenyl)-N^6-(3-(trifluoromethoxy)phenyl)-[1,2,5]oxadiazolo[3,4-b]pyrazine-5,6-diamine], for which the EC50 lay in the range of 5 to 20 µM.
On to `Fc1ccccc1Nc1nc2nc(C(F)(F)F)[nH]c2nc1NC1CCCCC1` [Compound 12v, N^5-(2-fluorophenyl)-N^6-cyclohexyl-2-(trifluoromethyl)-1H-imidazo[4,5-b]pyrazine-5,6-diamine], for which the EC50 is > 20 µM.
Turning to `FC(F)(F)c1cc(Nc2nc3nonc3nc2Nc2cc(C(F)(F)F)cc(C(F)(F)F)c2)cc(C(F)(F)F)c1` [Compound 3z, N^5,N^6-bis(3,5-bis(trifluoromethyl)phenyl)-[1,2,5]oxadiazolo[3,4-b]pyrazine-5,6-diamine], the EC50 was > 20 µM.
As for `Fc1ccccc1Nc1nc2nonc2nc1Nc1ccccc1` [Compound 4a, N^5-(2-fluorophenyl)-N^6-phenyl-[1,2,5]oxadiazolo[3,4-b]pyrazine-5,6-diamine], the figure is < 5 µM; as for `Cn1c(C(F)(F)F)nc2nc(Nc3cc(C(F)(F)F)cc(C(F)(F)F)c3)c(Nc3cc(C(F)(F)F)cc(C(F)(F)F)c3)nc21` [Compound 13d, N^5,N^6-bis(3,5-bis(trifluoromethyl)phenyl)-1-methyl-2-(trifluoromethyl)-imidazo[4,5-b]pyrazine-5,6-diamine], 5 to 20 µM.
The figure for `CCCNc1nc2c(nc1Nc1ccccc1F)nc(C(F)(F)F)n2C` [Compound 13w, 1-Methyl-N^5-(2-fluorophenyl)-N^6-propyl-2-(trifluoromethyl)-imidazo[4,5-b]pyrazine-5,6-diamine] is > 20 µM.
The figure for `Fc1c(Nc2nc3nonc3nc2Nc2cccc(C(F)(F)F)c2F)cccc1C(F)(F)F` [Compound 3aa, N^5,N^6-bis(2-fluoro-3-(trifluoromethyl)phenyl)-[1,2,5]oxadiazolo[3,4-b]pyrazine-5,6-diamine] is < 5 µM; for `Fc1cc(Nc2nc3nc(C(F)(F)F)[nH]c3nc2Nc2ccc(C(F)(F)F)c(F)c2)ccc1C(F)(F)F` [Compound 12h, N^5,N^6-bis(3-fluoro-4-(trifluoromethyl)phenyl)-2-(trifluoromethyl)-1H-imidazo[4,5-b]pyrazine-5,6-diamine] it is 5 to 20 µM.
`c1ccc(Nc2nc3nonc3nc2Nc2ccccc2)cc1` [Compound 3ee, N^5,N^6-diphenyl-[1,2,5]oxadiazolo[3,4-b]pyrazine-5,6-diamine]: the EC50 was < 5 µM.
The figure for `Fc1ccccc1Nc1nc2nc(C(F)(F)F)[nH]c2nc1Nc1cccc(C(F)(F)F)c1F` [Compound 12t, N^5-(2-fluorophenyl)-N^6-(2-fluoro-3-(trifluoromethyl)phenyl)-2-(trifluoromethyl)-1H-imidazo[4,5-b]pyrazine-5,6-diamine] is < 5 µM; for `Cn1c(C(F)(F)F)nc2nc(Nc3ccccc3F)c(Nc3ccccc3)nc21` [Compound 13s, 1-Methyl-N^5-(2-fluorophenyl)-N^6-phenyl-2-(trifluoromethyl)-imidazo[4,5-b]pyrazine-5,6-diamine] it is > 20 µM; for `Fc1cc(C(F)(F)F)ccc1Nc1nccnc1Nc1ccc(C(F)(F)F)cc1F` [Compound 16h, N^2,N^3-bis(2-fluoro-4-(trifluoromethyl)phenyl)pyrazine-2,3-diamine] it is 5 to 20 µM.
The compound `Fc1cc(Nc2nc3nc(C(F)(F)F)[nH]c3nc2Nc2ccc(OC(F)(F)F)c(F)c2)ccc1OC(F)(F)F` [Compound 12f, N^5,N^6-bis(3-fluoro-4-(trifluoromethoxy)phenyl)-2-(trifluoromethyl)-1H-imidazo[4,5-b]pyrazine-5,6-diamine] showed an EC50 of 5 to 20 µM.
As for `Fc1ccccc1Nc1nc2nonc2nc1NCCC(F)(F)F` [Compound 7d, N^5-(2-fluorophenyl)-N^6-(3,3,3-trifluoropropyl)-[1,2,5]oxadiazolo[3,4-b]pyrazine-5,6-diamine], the concentration for a half-maximal effect (EC50) was > 20 µM.
As for `CCNc1nc2nonc2nc1Nc1ccccc1F` [Compound 7b, N^5-ethyl-N^6-(2-fluorophenyl)-[1,2,5]oxadiazolo[3,4-b]pyrazine-5,6-diamine], the figure is 5 to 20 µM; as for `Cc1ccc(Nc2nc3nc(C(F)(F)F)n(C)c3nc2Nc2ccc(C)cc2)cc1` [Compound 13k, 1-Methyl-N^5,N^6-di-p-tolyl-2-(trifluoromethyl)-imidazo[4,5-b]pyrazine-5,6-diamine], > 20 µM; as for `Cn1c(C(F)(F)F)nc2nc(Nc3ccc(C(F)(F)F)cc3F)c(Nc3ccc(C(F)(F)F)cc3F)nc21` [Compound 13g, N^5,N^6-bis(2-fluoro-4-(trifluoromethyl)phenyl)-1-methyl-2-(trifluoromethyl)-imidazo[4,5-b]pyrazine-5,6-diamine], < 5 µM.
